Source: patent US20100041665A1, “N-PHENYL-PRENYLAMINE DERIVATIVES FOR THE TREATMENT OF COGNITIVE, NEURODEGENERATIVE OR NEURONAL DISEASES OR DISORDERS” (NOSCIRA, S.A., priority 2006, published 2010)

Tests used:
[1] = biological target: T1, rhBACE-1 β-Secretase recombinant human (Homo sapiens, UniProt P56817); assay: BACE assay (FRET); format: biochemical; conditions: percentage of enzyme activity
T1 construct: purchased R&D Systems 931-AS
Description: The aim of this assay is to determine if a compound, either synthetic or of marine origin, is a BACE-1 inhibitor, to avoid the formation of Aβ. This assay is based on FRET technology (Fluorescence Resonance Energy Transfer). FRET is used to measure cleavage of a peptide substrate, among other uses. […] When a substrate peptide cleavage occurs, the energy balance is broken and all the donor fluorescence can be observed. The increase in fluorescence is linearly related to the rate of proteolysis (Gordon, G W et al., 1998). In this assay the reaction occurs between an enzyme, purified BACE-1, and a fluorogenic peptidic substrate who present the “Swedish mutation”. The peptide cleavage by BACE-1 produces fluorescence energy and enzymatic activity can be quantified.
The reagents which are used in this assay are the following: • rhBACE-1 β-Secretase recombinant human (R&D Systems. Ref. 931-AS). • Fluorogenic Peptide Substrate IV (R&D Systems. Ref. ES004). • Beta-SECRETASE INHIBITOR H-4848. (BACHEM. Ref. H-4848.0001). • Sodium acetate.
The assay is carried out in a 96 wells microplate. The final concentration of substrate is 3.5 μM per well, and the enzyme concentration is 0.5 μg/ml. The final volume of the assay is 100 μl per well and all reagents are diluted in Reaction Buffer. The compounds are tested at a concentration of 10^−5 and 10^−6 M. The control in the assay is the commercial inhibitor β-Secretase inhibitor H-4848 from BACHEM, which is tested at 300 nM. All the samples and controls are studied by duplicate.
The plate is mixed gently and changes in the fluorescence are measured using a fluorimeter plate reader, with 320 nm excitation filter and 405 nm emission filter. The temperature should be preferably maintained between 25 and 30° C. Measurements are carried out every ten minutes during an hour. The first measure is subtracted from the last to calculate the fluorescence increase, evaluating the enzymatic activity. The 100% activity is calculated as the mean of the results of wells without sample or inhibitor.
In the cases where abnormal effects in fluorescence were detected, BACE inhibition activity was assayed using BACE-1 (beta-Secretase) FRET ASSAY KIT (Invitrogen, Ref. P2985). Fluorescence was measured with a fluorimeter plate reader, with 544 nm excitation filter and 580 nm emission filter.
(§1) The compounds of formula (I) of the present invention where submitted to the above indicated assays, in order to determine both their GSK-3 inhibition activity and BACE activity inhibition. The results are indicated in Table I and Table II, in percentage of the respective enzyme activity.

[2] = biological target: Recombinant human glycogen synthase kinase 3 beta (Homo sapiens, UniProt P49841); assay: GSK-3 beta inhibition assay; format: biochemical; conditions: 0.5 h, percentage of enzyme activity; for remaining activity at 25 µM: compound at 25 μM; for remaining activity at 50 µM: compound at 50 μM
Sequence of Recombinant human glycogen synthase kinase 3 beta (P49841 whole entry): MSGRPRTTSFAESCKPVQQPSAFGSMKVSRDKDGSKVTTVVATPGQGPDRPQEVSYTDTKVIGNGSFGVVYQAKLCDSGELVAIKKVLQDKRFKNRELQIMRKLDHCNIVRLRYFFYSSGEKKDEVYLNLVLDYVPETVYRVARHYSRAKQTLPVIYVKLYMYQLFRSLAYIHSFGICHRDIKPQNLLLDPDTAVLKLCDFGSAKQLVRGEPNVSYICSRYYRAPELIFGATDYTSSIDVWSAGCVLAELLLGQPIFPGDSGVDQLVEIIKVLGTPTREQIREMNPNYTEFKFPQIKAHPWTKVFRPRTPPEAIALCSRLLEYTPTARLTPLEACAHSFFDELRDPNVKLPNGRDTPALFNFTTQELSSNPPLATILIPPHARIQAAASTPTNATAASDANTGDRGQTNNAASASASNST
Experimental: GSK-3 beta Inhibition Assay
The GSK-3 beta activity of the compounds of formula (I) according to the present invention was determined by incubation of a mixture of recombinant human GSK-3 enzyme, a phosphate source and GSK-3 substrate in the presence and in the absence of the corresponding test compound, and by measuring the GSK-3 activity of this mixture. The compounds where tested at final concentrations of 25 and 50 μM.
Recombinant human glycogen synthase kinase 3 beta was assayed in MOPS 11 mM, pH 7.4, EDTA 0.2 mM, EGTA 1.25 mM, MgCl2 26.25 mM and sodium orthovanadate 0.25 mM in the presence of 62.5 μM of Phospho-Glycogen Synthase Peptide-2 (GS-2), 0.5 μCi gamma-^33P-ATP and unlabelled ATP at a final concentration of 12.5 μM. The final assay volume was 20 μl. After incubation for 30 minutes at 30° C., 15 μl aliquots were spotted onto P81 phosphocellulose papers. Filters were washed four times for at least 10 minutes each and counted with 1.5 ml of scintillation cocktail in a scintillation counter.
as §1

T1 sequence (P56817 46-457 limits assumed): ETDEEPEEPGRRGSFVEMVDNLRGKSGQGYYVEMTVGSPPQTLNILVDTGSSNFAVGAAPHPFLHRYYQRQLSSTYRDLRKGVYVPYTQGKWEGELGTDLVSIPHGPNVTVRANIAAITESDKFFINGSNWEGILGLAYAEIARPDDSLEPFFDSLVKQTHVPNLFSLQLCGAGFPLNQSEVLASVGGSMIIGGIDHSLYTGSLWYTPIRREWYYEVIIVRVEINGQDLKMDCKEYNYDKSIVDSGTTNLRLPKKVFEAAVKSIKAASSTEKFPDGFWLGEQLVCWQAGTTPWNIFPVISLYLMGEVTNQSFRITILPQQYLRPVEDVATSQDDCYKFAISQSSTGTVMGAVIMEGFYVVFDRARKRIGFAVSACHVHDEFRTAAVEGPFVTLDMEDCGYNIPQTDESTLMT

Structure (SMILES) | % of BACE activity ([1]; compound at 1 μM) | % of BACE activity ([1]; compound at 10 μM) | remaining activity at 25 µM [2] | remaining activity at 50 µM [2]
COC(=O)c1ccc(OC)c(N(CC=C(C)CCC=C(C)COC2CCCCO2)CC=C(C)CCC=C(C)COC2CCCCO2)c1 (centres unmarked) [Compound 37, 3-{Bis-[3,7-dimethyl-8-(tetrahydro-pyran-2-yloxy)-octa-2,6-dienyl]-amino}-4-methoxy-benzoic acid methyl ester] | 50 ± 4% | 6.5 ± 1% | 24.6% | 1.71%
COc1ccc(C(=O)N2CCN(CC=Cc3ccccc3)CC2)cc1N(CC=C(C)CCC=C(C)C)CC=C(C)CCC=C(C)C [Compound 38, {3-[Bis-(3,7-dimethyl-octa-2,6-dienyl)-amino]-4-methoxy-phenyl}-[4-(3-phenyl-allyl)-piperazin-1-yl]-methanone] | 81.5 ± 9% | 35 ± 10% | 23.6% | 2.51%
COc1ccc(C(=O)N2CCN(CCO)CC2)cc1N(CC=C(C)CCC=C(C)C)CC=C(C)CCC=C(C)C [Compound 39, {3-[Bis-(3,7-dimethyl-octa-2,6-dienyl)-amino]-4-methoxy-phenyl}-[4-(2-hydroxy-ethyl)-piperazin-1-yl]-methanone] | 100% | 100% | 55.1% | 13.2%
CCC(C)Oc1ccc(C(=O)OC)cc1NCC=C(C)CCC=C(C)CCC=C(C)C (centres unmarked) [Compound 40, 4-sec-Butoxy-3-(3,7,11-trimethyl-dodeca-2,6,10-trienylamino)-benzoic acid methyl ester] | 100% | 100% | 111% | 99.4%
COc1ccc(C(=O)NC(=N)n2cccn2)cc1N(C/C=C(\C)CCC=C(C)C)C/C=C(\C)CCC=C(C)C [Compound 41] | 73 ± 2% | 75 ± 9% | 88.9% | 98.4%
CCCOc1ccc(C(=O)OC)cc1NC/C=C(\C)CC/C=C(\C)CCC=C(C)C [Compound 43] | 88.3 ± 3.8% | 27.5 ± 9.2% | 103% | 98.2%
COc1ccc(C(=O)NCCc2c[nH]cn2)cc1N(C/C=C(\C)CCC=C(C)C)C/C=C(\C)CCC=C(C)C [Compound 46] | 122.5 ± 23.3% | 115.5 ± 29% | 27.9% | 19.8%
CC(C)=CCC/C(C)=C/CC/C(C)=C/CNc1cc(C(=O)O)ccc1O [Compound 48] | 100% | 36.5 ± 0.7% | 105% | 97.9%
